Test results as given in paper PMC10299909, “Structural basis of efficacy-driven ligand selectivity at GPCRs” (Nature Chemical Biology, 2023).
Changes are numbered by the printed parent chain.

Assays:
M3 mAChR [1] = biological target: T1, M3 mAChR (Homo sapiens, UniProt P20309); experiment: whole-cell [3H]NMS radioligand competition binding, CHO FlpIn cells; conditions: first set of experiments, read-out: pKI (radioligand binding competition with [3H]NMS) (converted)
T1 construct: expressed in transfected cells; host or cells: CHO FlpIn

M4 mAChR [2] = biological target: T2, M4 mAChR (Homo sapiens, UniProt P08173); experiment: as above; conditions: read-out: Affinities M2 M4: binding normalised to Buffer only-TB = 100
T2 construct: expressed in transfected cells; host or cells: CHO FlpIn
T2 sequence (P08173 1-479): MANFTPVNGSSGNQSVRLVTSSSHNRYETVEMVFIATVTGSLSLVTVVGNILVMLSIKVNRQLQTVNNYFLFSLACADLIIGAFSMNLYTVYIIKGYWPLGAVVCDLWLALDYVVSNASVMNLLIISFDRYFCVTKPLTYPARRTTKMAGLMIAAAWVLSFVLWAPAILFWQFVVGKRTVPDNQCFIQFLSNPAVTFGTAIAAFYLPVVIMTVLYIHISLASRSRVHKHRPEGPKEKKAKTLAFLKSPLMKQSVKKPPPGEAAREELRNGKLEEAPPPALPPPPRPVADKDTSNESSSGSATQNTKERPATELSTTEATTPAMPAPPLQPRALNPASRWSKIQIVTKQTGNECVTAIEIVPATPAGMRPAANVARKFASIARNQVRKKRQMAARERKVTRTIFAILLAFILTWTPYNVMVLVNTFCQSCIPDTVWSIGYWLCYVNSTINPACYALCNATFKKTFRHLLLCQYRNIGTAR

M3 mAChR [3] = biological target: T1, M3 mAChR; experiment: pERK1/pERK2 signaling assay (AlphaScreen SureFire), CHO FlpIn cells; type: cell-based
M4 mAChR [4] = biological target: T2, M4 mAChR; experiment: as above; type: cell-based
M5 mAChR = biological target: T3, M5 mAChR (Homo sapiens, UniProt P08912); experiment: as above; type: cell-based; conditions: first set of experiments
T3 construct: expressed in transfected cells; host or cells: CHO FlpIn
T3 sequence (P08912 1-532): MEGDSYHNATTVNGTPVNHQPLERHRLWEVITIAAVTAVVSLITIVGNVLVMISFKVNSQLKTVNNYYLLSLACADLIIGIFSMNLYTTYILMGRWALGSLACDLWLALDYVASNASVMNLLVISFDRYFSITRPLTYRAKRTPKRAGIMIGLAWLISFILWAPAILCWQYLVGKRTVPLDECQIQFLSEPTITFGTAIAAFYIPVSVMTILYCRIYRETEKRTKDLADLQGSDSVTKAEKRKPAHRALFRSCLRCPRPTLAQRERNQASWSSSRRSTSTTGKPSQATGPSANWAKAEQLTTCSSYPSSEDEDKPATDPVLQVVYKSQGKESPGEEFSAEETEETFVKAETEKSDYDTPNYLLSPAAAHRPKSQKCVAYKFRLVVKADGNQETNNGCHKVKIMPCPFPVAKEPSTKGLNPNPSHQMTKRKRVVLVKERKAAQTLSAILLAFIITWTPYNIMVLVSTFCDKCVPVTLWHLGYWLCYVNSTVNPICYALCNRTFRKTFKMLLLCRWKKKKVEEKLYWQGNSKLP

M4 L190F mAChR [5] = biological target: T4, M4 L190F mAChR (Homo sapiens, UniProt P08173, L190F); experiment: as above; type: cell-based; conditions: M4(L190F); second set of experiments
T4 construct: expressed in transfected cells; host or cells: CHO FlpIn
T4 sequence (P08173 1-479 L190F): T2 sequence (P08173 1-479) with L190F

M2 WT mAChR = biological target: T5, M2 WT mAChR (Homo sapiens, UniProt P08172); experiment: BRET TRUPATH GoA activation (G-protein dissociation) assay; type: cell-based; conditions: M2 WT; T=[…]
T5 construct: expressed in transfected cells; host or cells: CHO FlpIn
T5 sequence (P08172 1-466): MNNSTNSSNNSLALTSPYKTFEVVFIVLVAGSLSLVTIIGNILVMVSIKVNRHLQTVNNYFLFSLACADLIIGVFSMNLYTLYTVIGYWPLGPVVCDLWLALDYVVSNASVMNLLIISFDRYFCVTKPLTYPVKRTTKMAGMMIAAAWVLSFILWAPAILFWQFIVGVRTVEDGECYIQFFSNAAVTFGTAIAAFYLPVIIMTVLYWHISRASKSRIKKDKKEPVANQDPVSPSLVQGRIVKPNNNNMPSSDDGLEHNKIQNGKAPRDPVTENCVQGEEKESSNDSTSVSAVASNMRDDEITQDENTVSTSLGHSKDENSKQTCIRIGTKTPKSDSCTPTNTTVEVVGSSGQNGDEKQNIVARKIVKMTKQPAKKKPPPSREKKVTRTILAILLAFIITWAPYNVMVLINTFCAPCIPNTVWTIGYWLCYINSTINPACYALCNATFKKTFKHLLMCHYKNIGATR
Procedure: (§1) Cells were seeded at 20,000 cells per well into 96-well flat-bottom white culture plates and grown for 4 h. Plasmid DNA (20 ng per well of Gα, Gβ and Gγ at a 1:1:1 ratio) and linear polyethylenimine were added to the cells in a 1:6 ratio. To allow for protein expression, cells were then incubated (37 °C, 5% CO2) for 48 h before the measurement of agonist activity. […] The initial 4 min of measurement was considered baseline counts before ligand or vehicle addition, with BRET readings every 2 min for a further 8 min following drug or vehicle addition.
(§2) Concentration–response curves were fitted to a three-parameter logistic equation to derive ligand potency (pEC50) estimates.
(§3) Data was analyzed using the operational model of agonism to quantify the efficacy (Logτ) of each agonist in each cell line, and subsequently corrected for receptor expression level differences between cell lines (Logτc), using the M2 WT as reference. […] Source data

M4 L190F mAChR [6] = biological target: T4, M4 L190F mAChR; experiment: as above; type: cell-based; conditions: T=[…]
Procedure: as §1, §2, §3

M4 WT mAChR = biological target: T6, M4 WT mAChR (Homo sapiens, UniProt P08173); experiment: as above; type: cell-based; conditions: T=[…]
T6 construct: expressed in transfected cells; host or cells: CHO FlpIn
T6 sequence (P08173 1-479): T2 sequence (P08173 1-479)

M2 mAChR = biological target: T7, M2 mAChR (Homo sapiens, UniProt P08172); experiment: whole-cell [3H]NMS radioligand competition binding, CHO FlpIn cells
T7 sequence (P08172 1-466): T5 sequence (P08172 1-466)

T1 sequence (P20309 whole entry): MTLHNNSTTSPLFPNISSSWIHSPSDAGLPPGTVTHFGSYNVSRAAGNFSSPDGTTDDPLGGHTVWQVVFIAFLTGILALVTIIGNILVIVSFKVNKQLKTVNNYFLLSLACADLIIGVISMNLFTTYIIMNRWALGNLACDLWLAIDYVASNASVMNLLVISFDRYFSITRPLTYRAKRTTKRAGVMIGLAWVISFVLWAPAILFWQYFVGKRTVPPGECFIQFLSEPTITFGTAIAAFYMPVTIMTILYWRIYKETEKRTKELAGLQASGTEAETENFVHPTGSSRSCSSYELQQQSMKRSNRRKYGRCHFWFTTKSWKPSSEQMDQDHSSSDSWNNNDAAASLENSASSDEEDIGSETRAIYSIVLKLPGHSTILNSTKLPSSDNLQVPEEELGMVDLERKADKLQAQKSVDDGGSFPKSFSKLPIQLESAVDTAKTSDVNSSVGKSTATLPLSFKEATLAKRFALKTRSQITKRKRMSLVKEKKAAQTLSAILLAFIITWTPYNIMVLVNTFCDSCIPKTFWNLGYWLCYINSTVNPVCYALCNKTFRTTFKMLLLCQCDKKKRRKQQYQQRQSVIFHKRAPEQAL

## CCCCCCOc1nsnc1C1=CCCN(C)C1 [Xanomeline, xanomeline]
M3 mAChR [1]
  Ki: 100 nM
M4 mAChR [2]; M4, Log[Ligand] (M) -5, individual experiments
  remaining binding at 10 µM: 1.95%
M4 mAChR [2]; M4, Log[Ligand] (M) -6, individual experiments
  remaining binding at 1 µM: 18.6%
M4 mAChR [2]; M4, Log[Ligand] (M) -7, individual experiments
  remaining binding at 0.1 µM: 88%
M4 mAChR [2]; M4, Log[Ligand] (M) -9, individual experiments
  remaining binding at 0.001 µM: 105%
M3 mAChR [3]
  Emax pERK1/2: 62 ± 6 % FBS stimulation
M3 mAChR [3]; M3, first set of experiments, read-out: pEC50 pERK1/2 (converted)
  EC50: 117 nM
M4 mAChR [4]; first set of experiments (top 5 rows)
  Emax pERK1/2: 92 ± 4 % FBS stimulation
M4 mAChR [4]; second set of experiments (bottom 4 rows)
  Emax pERK1/2: 101 ± 3 % FBS stimulation
M5 mAChR
  Emax pERK1/2: 80 ± 8 % FBS stimulation
M4 L190F mAChR [5]
  Emax pERK1/2: 90 ± 8 % FBS stimulation
M2 WT mAChR
  Log(Tau) corrected for receptor expression (Logτc), GoA activation: -0.65
M4 L190F mAChR [6]
  Log(Tau) corrected for receptor expression (Logτc), GoA activation: -0.36
M4 L190F mAChR [6]; […], Log[Ligand] (M) -3, individual experiments, read-out: GoA activation response
  activation at 1000 µM: 3.92%
M4 L190F mAChR [6]; […], Log[Ligand] (M) -5, individual experiments, read-out: GoA activation response
  activation at 10 µM: 49%
M4 WT mAChR
  Log(Tau) corrected for receptor expression (Logτc), GoA activation: 0.38
M2 mAChR; read-out: Affinities M2 M4: binding normalised to Buffer only-TB = 100, M2, Log[Ligand] (M) -7, individual experiments
  remaining binding at 0.1 µM: 83.3%
M2 mAChR; read-out: Affinities M2 M4: binding normalised to Buffer only-TB = 100, M2, Log[Ligand] (M) -8, individual experiments
  remaining binding at 0.01 µM: 90.2%
M2 mAChR; read-out: Affinities M2 M4: binding normalised to Buffer only-TB = 100, M2, Log[Ligand] (M) -10, individual experiments
  remaining binding at 0.0001 µM: 101%
